# In patent US20150265633A1, “STEROID CONTAINING DRUG DELIVERY SYSTEM” (Allergan, Inc., priority 2007, published 2015):
# Columns and labels:
# [1] = system: VEGF-induced BRB and BAB breakdown in rabbit eye; assay: Rabbit model of VEGF-induced BRB and BAB breakdown, scanning ocular fluorophotometry, aqueous steroid suspensions (Example 1); assay type: in vivo; conditions: for inhibition of VEGF-induced BAB breakdown (iris leakage, anterior segment) / inhibition of VEGF-induced BRB breakdown (retinal leakage, posterior segment): 1 mg (100 μl of 10 mg/ml suspension) intravitreal, VEGF one month thereafter, fluorophotometry 48 hrs after VEGF; for block of VEGF-induced BAB breakdown (iris leakage) / block of VEGF-induced BRB breakdown (retinal leakage): rabbit, corticosteroid administered systemically or intravitreally
# Description: An in vivo (rabbit eye) experiment was carried out with liquid glucocorticoid derivative formulations. Recombinant vascular endothelial growth factor (VEGF) was obtained from a supplier (R&D Systems). Female Dutch Belt rabbits were anaesthetized with isoflurane inhalation and topical 0.5% proparacaine hydrochloride, and intravitreal injection of one eye with 500 ng VEGF in sterile phosphate buffered saline (PBS) containing 0.1% bovine serum albumin was performed using a 28 gauge ½ inch needle. The other eye is given the same volume of the vehicle, without the VEGF.
# The extent of VEGF-induced BRB and BAB breakdown of the blood retinal barrier and the blood aqueous barrier was measured by scanning ocular fluorophotemetry (Fluorotron Master, Ocumetrics Inc.); at various times following intravitreal injection. In this model a fluorescent label is administered intravenously, following by determination of the amount of fluorescenin in the anterior and posterior segment and an indication of iridial and retinal leakage, respectively.
# VEGF injection mimics this pathological condition.
# Sodium fluorescein in 1 ml saline was injected via the marginal ear vein at a concentration of 50 mg/kg, and ocular fluorescein levels in the vitreoretinal chamber and the anterior chamber was determined 50 minutes later.
# Ten milligrams of each compound is added to 1 ml of sterile phosphate-buffered saline (PBS; ph 7.4). At day 0, 100 μl of a 10 mg/ml suspension of each steroid is injected into the vitreous of a rabbit eye. The PBS vehicle is injected into the other eye. VEGF is then injected at a pre-determined time (one month) thereafter, and BRB and BAB breakdown were measured by scanning ocular fluorophotometry 48 hrs later as described in Edelman et al., EXP.
# Water solubility = assay type: physicochemical
# physchem = assay: physchem
# Description: Log P is the lipophilicity coefficient, where P is the octonol/water partition coefficient.
# [2] = system: wet age-related macular degeneration; assay: Treatment of ARMD with a viscous GD formulation (Example 5); assay type: in vivo, human; conditions: intravitreal 100 μl hyaluronic acid solution with about 1000 μg crystals in suspension
# Description: A person with wet age-related macular degeneration is treated with an intravitreal injection of 100 μl of a hyaluronic acid solution containing about 1000 μg of fluticasone propionate crystals in suspension.
# cystic macular edema = assay: Treatment of macular edema with a solid GD implant (Example 4); assay type: in vivo, human
# Description: A person diagnosed with cystic macular edema treated by administration of a biodegradable drug delivery system administered to each eye of the patient. […] A similar implant is administered subconjunctivally to the patient's right eye. […] No increase in intraocular pressure is seen one week after administration.
# [3] = 500 ng VEGF intravitreal, 48 hours after injection, 50 minutes after fluorescein
# [4] = after about 3 months from the surgery, 2 mg PLGA implant with about 1000 μg drug
Compound,"inhibition of VEGF-induced BAB breakdown (iris leakage, anterior segment) ([1]; rabbit eye)","inhibition of VEGF-induced BRB breakdown (retinal leakage, posterior segment) ([1]; rabbit eye)",Lipophicity (log P) (physchem),logP (physchem),block of VEGF-induced BAB breakdown (iris leakage) [1],block of VEGF-induced BRB breakdown (retinal leakage) [1],other results
CCC(=O)O[C@]1(C(=O)SCF)[C@H](C)C[C@H]2[C@@H]3C[C@H](F)C4=CC(=O)C=C[C@]4(C)[C@@]3(F)[C@@H](O)C[C@@]21C [Fluticasone propionate],no effect,completely blocks,4.20,4.2,–,–,solubility (Water solubility; water): 0.14 µg/mL; quality of life reported by patient [2]: overall improvement; rate of neovascularization and related inflammation ([2]; within one month): acceptable reduction
VEGF,–,–,–,–,–,–,"increase in fluorescein contained in the aqueous (BAB breakdown) compared to normal untreated rabbit eyes [1, 3]: approximately 6 fold; increase in fluorescein contained in the vitreous (BRB breakdown) compared to normal untreated rabbit eyes [1, 3]: approximately 18 fold"
CC1(C)O[C@@H]2C[C@H]3[C@@H]4CCC5=CC(=O)C=C[C@]5(C)[C@@]4(F)[C@@H](O)C[C@]3(C)[C@]2(C(=O)CO)O1 [Triamcinolone acetonide],completely inhibited,completely inhibited,–,–,completely blocked,completely blocked,Water Solubility (Water solubility): 21 µg/mL; logP (physchem; octanol/water): 2.53
C[C@H]1C[C@H]2[C@@H]3CCC4=CC(=O)C=C[C@]4(C)[C@@]3(Cl)[C@@H](O)C[C@]2(C)[C@@]1(O)C(=O)CO [beclomethasone],inhibited,inhibited,–,–,completely blocked,completely blocked,–
C[C@@H]1C[C@H]2[C@@H]3CCC4=CC(=O)C=C[C@]4(C)[C@@]3(F)[C@@H](O)C[C@]2(C)[C@@]1(O)C(=O)CO [Dexamethasone],–,–,1.95,1.95,–,–,–
"CCC(=O)OCC(=O)[C@@]1(OC(=O)CC)[C@@H](C)C[C@H]2[C@@H]3CCC4=CC(=O)C=C[C@]4(C)[C@@]3(Cl)[C@@H](O)C[C@@]21C [Beclomethasone dipropionate, beclomethasone 17,21-dipropionate]",no effect,completely blocks,4.40,4.4,–,–,"appearance of the retina (cystic macular edema; [4]): appears normal; degeneration of the optic nerve (cystic macular edema; [4]): appears to be reduced; increase in intraocular pressure (cystic macular edema; one week after administration, 2 mg PLGA implant with about 1000 μg drug): No increase; reduction in retinal thickness (cystic macular edema; right eye (implant subconjunctival) versus left eye (intravitreal), 2 mg implant, about 1000 μg PLGA and about 1000 μg drug): more rapid reduction; duration of complete inhibition of VEGF-mediated responses ([1]; rabbit eye, 100 μl of 10 mg/ml intravitreal): greater than 3 months"
